Results reported in ChEMBL document CHEMBL1909046, “DrugMatrix in vitro pharmacology data”.

What was measured:
[1] = target: T1, B2 bradykinin receptor (Homo sapiens, UniProt P30411); assay type: cell membranes, Membrane; conditions: chem-1; also: in other assays of this panel Not Active means under 50% inhibition at 10 µM
T1 sequence (P30411 whole entry): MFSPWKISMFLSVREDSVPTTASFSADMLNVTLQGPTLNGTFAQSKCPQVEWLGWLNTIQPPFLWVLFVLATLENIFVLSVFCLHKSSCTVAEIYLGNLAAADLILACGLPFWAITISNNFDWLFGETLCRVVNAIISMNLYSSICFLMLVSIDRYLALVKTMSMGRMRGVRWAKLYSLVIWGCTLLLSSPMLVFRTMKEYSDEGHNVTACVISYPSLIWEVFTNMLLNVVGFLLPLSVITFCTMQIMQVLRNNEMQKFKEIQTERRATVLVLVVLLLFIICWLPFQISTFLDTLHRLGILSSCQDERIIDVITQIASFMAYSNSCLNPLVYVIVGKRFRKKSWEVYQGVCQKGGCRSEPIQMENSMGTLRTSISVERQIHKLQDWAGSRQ

[2] = target: Cannabinoid receptor 1 (Homo sapiens, UniProt P21554); assay type: cell membranes, Chem-1, Membrane; conditions: chem-1; also: in other assays of this panel Not Active means under 50% inhibition at 10 µM
Cannabinoid receptor 1, sequence (P21554 whole entry): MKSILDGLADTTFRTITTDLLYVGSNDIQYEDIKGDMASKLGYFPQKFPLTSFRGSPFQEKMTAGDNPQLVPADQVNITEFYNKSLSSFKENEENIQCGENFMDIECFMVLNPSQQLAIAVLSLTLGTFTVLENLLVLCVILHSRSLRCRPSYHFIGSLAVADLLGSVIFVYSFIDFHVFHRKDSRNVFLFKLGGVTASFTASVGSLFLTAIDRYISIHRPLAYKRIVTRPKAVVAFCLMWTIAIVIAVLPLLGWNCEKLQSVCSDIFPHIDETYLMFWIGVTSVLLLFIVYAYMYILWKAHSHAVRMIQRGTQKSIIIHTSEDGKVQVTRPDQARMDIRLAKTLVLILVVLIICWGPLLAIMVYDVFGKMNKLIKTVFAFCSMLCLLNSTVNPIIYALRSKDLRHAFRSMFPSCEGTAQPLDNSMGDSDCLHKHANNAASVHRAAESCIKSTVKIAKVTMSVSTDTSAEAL

[3] = DRUGMATRIX: Leukotriene, BLT (LTB4) radioligand binding (ligand: [3H]LTB4); assay type: cell membranes, Membrane; conditions: u-937; Not Active = under 50% inhibition at 10 µM
[4] = target: T2, Neuropeptide Y receptor type 1 (Homo sapiens, UniProt P25929); assay type: cell membranes, Membrane; conditions: sk-n-mc; also: in other assays of this panel Not Active means under 50% inhibition at 10 µM
T2 sequence (P25929 whole entry): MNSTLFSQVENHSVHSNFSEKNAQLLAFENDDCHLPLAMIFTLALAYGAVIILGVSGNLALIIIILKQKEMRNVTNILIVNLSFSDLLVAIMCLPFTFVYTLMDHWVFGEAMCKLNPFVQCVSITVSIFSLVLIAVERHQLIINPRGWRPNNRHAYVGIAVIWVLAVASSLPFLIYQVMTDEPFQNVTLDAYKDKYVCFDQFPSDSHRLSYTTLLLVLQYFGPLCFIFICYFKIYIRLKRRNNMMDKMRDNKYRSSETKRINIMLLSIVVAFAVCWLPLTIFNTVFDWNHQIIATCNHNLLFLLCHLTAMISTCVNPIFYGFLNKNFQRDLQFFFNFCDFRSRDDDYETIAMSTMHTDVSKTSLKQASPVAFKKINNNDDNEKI

[5] = DRUGMATRIX: Phosphodiesterase PDE3 enzyme inhibition (substrate: [3H]cAMP + cAMP); assay type: tissue-based, Homo sapiens; conditions: platelet; Not Active = under 50% inhibition at 10 µM
[6] = DRUGMATRIX: Phosphodiesterase PDE4 enzyme inhibition (substrate: [3H]cAMP + cAMP); conditions: u-937; Not Active = under 50% inhibition at 10 µM
[7] = target: cGMP-specific 3',5'-cyclic phosphodiesterase (Homo sapiens, UniProt O76074); test: DRUGMATRIX: Phosphodiesterase PDE5 enzyme inhibition (substrate: [3H]cGMP + cGMP); assay type: tissue-based, Platelet; conditions: platelet; Not Active = under 50% inhibition at 10 µM

C1CCN2C[C@@H]3C[C@@H](CN4CCCC[C@@H]34)[C@H]2C1 [SPARTEINE]
Not Active: IC50 [1] | IC50 [2] | IC50 [3] | Ki [3] | IC50 [4] | IC50 [5] | Ki [5] | IC50 [6] | Ki [6] | IC50 [7]

LEAD(IV) ACETATE
Not Active: IC50 [1] | Ki [1] | IC50 [2] | Ki [2] | IC50 [3] | Ki [3] | IC50 [4] | Ki [4] | IC50 [5] | Ki [5] | IC50 [6] | Ki [6] | IC50 [7] | Ki [7]

CC(O)C(=O)O (centres undefined) [LACTIC ACID]
Not Active: IC50 [1] | IC50 [2] | IC50 [3] | Ki [3] | IC50 [4] | IC50 [5] | Ki [5] | IC50 [6] | Ki [6] | IC50 [7]
